For data set [1], the system named is mice. Put plainly: Forced swim test (FST). The class given is in vivo, mouse. To be noted: acute treatment, vs saline. On the procedure: (§1) Mice were treated as described above before being subjected to behavioral studies. Predictive estimation for anxiolytic properties of tat-cyclotraxin-B was assessed using open field and elevated plus-maze (EPM). Antidepressant-like action of tat-cyclotraxin-B was assessed with the forced-swim test (FST). Effects of acute treatment with tat-cyclotraxin-B on spontaneous locomotion, exploration and reactivity to a novel open field was assessed in plexiglas activity chambers (Med Associates; 45×45×31 cm). Mice were placed into the center of the open field, and activity was recorded for 30 min. Testing took place under bright ambient light conditions to increase the anxiety component of the center areas of the field (defined as the central 15×15 cm portion). Mice subjected to EPM received a double 90-interval i.v. injection of tat-cyclotraxin-B or saline buffer before being placed on the platform of the EPM and assessed for 5 min (26×5×36 cm). The diazepam control group consisted of saline buffer double-treated mice that further received a 30-min i.p. injection of diazepam (1 mg/kg). Mice were assessed for number of entries and amount of time spent in open versus closed arms. The FST procedure was applied to treated mice as described by Porsolt et al. (see ref. [60]). Mice were dropped individually into glass cylinder (height, 25 cm; diameter, 10 cm) containing 10 cm water height, maintained at 23–25°C. Animals were tested for a total of 6 min. The total time of swimming, the number of climbing attempts and the time of immobility was recorded during the last 4 min of the session, after 2 min of habituation. The paroxetine control group consisted of saline buffer double-treated mice that further received a 30-min i.p. injection of paroxetine (2 mg/kg). Behaviors were recorded on videotape and scored blind.

For data set [2], the system named is mice. Put plainly: Elevated plus-maze (EPM). The class given is in vivo, mouse. Conditions: vs saline. On the procedure: as §1
For data set [3], the target named is T1, native TrkB receptors in cortical neurons (Mus musculus, UniProt P15209).
T1 construct: cortical neurons naturally express TrkB receptors; endogenous in cells; host or cells: primary cortical neurons from E16 mouse embryos
The data set can be described thus: KIRA-ELISA (TrkB tyrosine phosphorylation) in primary cortical neurons. The class given is cell-based. To be noted: for EC50: read-out: EC50, TrkB activation. From the text: (§2) The human recombinant TrkB receptor was fluorescently tagged at its C-terminus with the Enhanced cyan fluorescent protein (rhTrkB-ECFP) by cloning the full human TrkB sequence (kindly provided by G. M. Brodeur) into the pECFP-N1 expression vector (Clontech). For inducible expression, rhTrkB-ECFP was subcloned into the tetracycline-responsive (TetOn) vector pTRE2 (Clontech). Chinese Hamster Ovary cells stably expressing rhTrkB-ECFP (TetOn-rhTrkB cells), were produced by transfection of the pTRE2-rhTrkB-ECFP plasmid into CHO-K1 TetOn cells (Clontech) followed by clone selection in 0.25 mg/ml hygromycin B (Invitrogen) and 0.1 mg/ml geneticin (G418; Invitrogen). Resistant cells were selected based on both fluorescence intensity and KIRA-ELISA profile after an overnight incubation in presence of 1000 ng/ml doxycycline (Clontech). Cortical neurons were prepared and cultured from E16 mouse embryos as described previously. The nnr5 PC12-TrkA, nnr5 PC12-TrkB and nnr5 PC12-TrkC cells (kindly provided by M. V. Chao) are NGF non-responding mutant PC12 cells stably transfected with TrkA, TrkB and TrkC cDNA, respectively.
(§3) TrkB activity was quantified using the previously described KIRA-ELISA assay with slight modifications. Cortical neurons were seeded on polyornithin-coated flat-bottom 96-well culture plates (12×10^4 cells per well) and cultured eight days at 37°C in 5% CO2. TetOn-rhTrkB cells were seeded on flat-bottom 96-well culture plates (4×10^4 cells per well) and incubated overnight with 1000 ng/ml doxycycline (Figs. S1,S2) except when indicated. Fluorescence levels in TetOn-rhTrkB cells were verified before each assay. […] Assay was stopped by removing the medium on ice and membranes were solubilized using KIRA-ELISA solubilization buffer (NaCl 150 mM, Hepes 50 mM, Triton X-100 0.5%, thimerosal 0.01%, sodium orthovanadate 2 mM, supplemented with a cocktail of protease inhibitors) for 1 h at room temperature. Solubilized membranes were transferred for 2 h at room temperature onto ELISA microtiter plate (Nunc Maxisorp) pre-coated overnight at 4°C with appropriate antibodies [polyclonal anti-GFP (1∶5000, Clontech) for TetOn-rhTrkB, polyclonal anti-TrkB (1 µg/ml, Upstate) for cultured neurons and brain slices, for phosphorylation assays; monoclonal anti-GFP (1∶3000, Chemicon) for TetOn-rhTrkB, monoclonal anti-TrkB (1∶1000, BD Biosciences) for cultured neurons and brain slices, for total TrkB quantification]. […] Absorbance was read at 450 nm after addition of 3,3′,5′,5-tetramethyl-benzidine substrate (Sigma) and acidification with 1N hydrochloric acid.
(§4) Concentration-response and competition curves were obtained using an iterative least-squares method derived from that of Parker & Waud (1971). […] Concentration-response curves and Eadie-Hofstee plots were analyzed using two-way ANOVA. Significance over time in locomotor activity studies was given using two-way ANOVA followed by Bonferroni's post-hoc test. […] One-way ANOVA followed by post-hoc Dunnett's test was used to evaluate statistical significance compare to saline group in EPM and FST procedures. n represents the number of independent experiments.

Data set [4] addresses T2, human TrkB receptor (Homo sapiens, UniProt Q16620).
T2 construct: expressed in transfected cells
Put plainly: KIRA-ELISA (TrkB tyrosine phosphorylation) in TetOn-rhTrkB CHO cells. The class given is cell-based. Conditions: for ratio signal/background / EC50 / IC50: TetOn-rhTrkB cells; for EC50: read-out: EC50, TrkB activation.
Excerpt: as §2, §3, §4
In general terms: ELISA stands for enzyme-linked immunosorbent assay.

Data set [5] deals with nnr5 PC12-TrkB cells. To be noted: 48 h.
In data set [6] the test system is nnr5 PC12 cells. The data set can be described thus: Morphological analysis of toxicity / cell death. The class given is cell-based. Conditions: 72 hours after exposure to 10 µM.
The target of data set [7] is T3, TrkB in brain slices (Mus musculus, UniProt P15209).
T3 construct: KIRA-ELISA analysis of brain TrkB receptors from mice; from tissue; host or cells: adult Swiss mouse brain, 300-µm coronal slices
The data set can be described thus: KIRA-ELISA in brain slices incubated with peptide. Conditions: peptide added to brain slices. The class given is cell-based. As to the method: TrkB activity was quantified using the previously described KIRA-ELISA assay with slight modifications. Cortical neurons were seeded on polyornithin-coated flat-bottom 96-well culture plates (12×10^4 cells per well) and cultured eight days at 37°C in 5% CO2. TetOn-rhTrkB cells were seeded on flat-bottom 96-well culture plates (4×10^4 cells per well) and incubated overnight with 1000 ng/ml doxycycline (Figs. S1,S2) except when indicated. Fluorescence levels in TetOn-rhTrkB cells were verified before each assay. […] Solubilized membranes were transferred for 2 h at room temperature onto ELISA microtiter plate (Nunc Maxisorp) pre-coated overnight at 4°C with appropriate antibodies [polyclonal anti-GFP (1∶5000, Clontech) for TetOn-rhTrkB, polyclonal anti-TrkB (1 µg/ml, Upstate) for cultured neurons and brain slices, for phosphorylation assays; monoclonal anti-GFP (1∶3000, Chemicon) for TetOn-rhTrkB, monoclonal anti-TrkB (1∶1000, BD Biosciences) for cultured neurons and brain slices, for total TrkB quantification]. […] Absorbance was read at 450 nm after addition of 3,3′,5′,5-tetramethyl-benzidine substrate (Sigma) and acidification with 1N hydrochloric acid.

[8] abbreviates: TrkB + p75NTR co-expressing cortical neurons.

The text below walks through data of publication PMC2841647 (PLoS ONE, 2010).

Where “and” joins values, the source holds several entries; their conditions need not be identical. Equal entries are not always repeated. Where two headings read alike, the source gives them in different places. Where a SMILES comes first, the peptide text is derived from it. Bridges are numbered along the chain shown (N, C = ends).

T2 sequence (Q16620 32-822): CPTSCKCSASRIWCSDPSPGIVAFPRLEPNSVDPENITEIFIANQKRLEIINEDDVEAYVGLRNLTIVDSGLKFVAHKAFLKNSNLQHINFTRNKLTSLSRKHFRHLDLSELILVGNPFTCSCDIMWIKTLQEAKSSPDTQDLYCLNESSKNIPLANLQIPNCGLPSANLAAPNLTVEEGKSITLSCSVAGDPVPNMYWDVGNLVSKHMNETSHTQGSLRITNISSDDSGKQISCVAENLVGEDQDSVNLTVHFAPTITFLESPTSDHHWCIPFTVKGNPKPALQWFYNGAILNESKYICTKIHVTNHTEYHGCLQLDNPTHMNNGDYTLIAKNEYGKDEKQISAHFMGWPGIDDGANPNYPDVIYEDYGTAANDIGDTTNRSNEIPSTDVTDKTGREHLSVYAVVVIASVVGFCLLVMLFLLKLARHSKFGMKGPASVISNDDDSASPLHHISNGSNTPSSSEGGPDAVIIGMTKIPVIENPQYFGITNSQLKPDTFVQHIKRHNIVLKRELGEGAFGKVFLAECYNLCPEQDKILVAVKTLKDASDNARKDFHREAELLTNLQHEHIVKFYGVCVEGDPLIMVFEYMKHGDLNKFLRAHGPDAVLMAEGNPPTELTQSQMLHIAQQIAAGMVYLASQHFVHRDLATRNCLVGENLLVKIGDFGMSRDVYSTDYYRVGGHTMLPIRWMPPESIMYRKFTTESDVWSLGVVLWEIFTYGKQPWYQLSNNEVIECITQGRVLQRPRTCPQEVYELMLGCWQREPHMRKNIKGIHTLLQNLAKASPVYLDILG
T1 sequence (P15209 32-821): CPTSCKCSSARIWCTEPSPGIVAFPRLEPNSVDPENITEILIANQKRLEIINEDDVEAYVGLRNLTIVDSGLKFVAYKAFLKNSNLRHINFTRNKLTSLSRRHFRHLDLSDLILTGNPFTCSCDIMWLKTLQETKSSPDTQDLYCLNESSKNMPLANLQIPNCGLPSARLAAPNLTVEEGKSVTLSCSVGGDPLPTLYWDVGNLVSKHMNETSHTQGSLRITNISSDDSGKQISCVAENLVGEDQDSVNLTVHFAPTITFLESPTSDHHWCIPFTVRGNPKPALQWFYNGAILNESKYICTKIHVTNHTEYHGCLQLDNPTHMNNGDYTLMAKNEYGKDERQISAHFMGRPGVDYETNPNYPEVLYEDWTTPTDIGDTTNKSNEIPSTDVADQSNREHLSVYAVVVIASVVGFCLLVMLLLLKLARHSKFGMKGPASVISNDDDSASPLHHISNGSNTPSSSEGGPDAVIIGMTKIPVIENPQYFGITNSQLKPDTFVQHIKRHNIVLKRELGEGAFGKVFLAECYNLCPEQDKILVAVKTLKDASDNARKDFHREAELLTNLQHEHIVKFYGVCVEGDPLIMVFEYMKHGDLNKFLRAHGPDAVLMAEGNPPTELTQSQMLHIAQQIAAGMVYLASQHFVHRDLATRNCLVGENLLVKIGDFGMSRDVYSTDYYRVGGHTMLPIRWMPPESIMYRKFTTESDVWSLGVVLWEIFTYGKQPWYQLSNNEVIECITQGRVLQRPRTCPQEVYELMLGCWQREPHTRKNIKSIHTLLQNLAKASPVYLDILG
T3 sequence (P15209 32-821): as above

`Fc1ccc([C@@H]2CCNC[C@H]2COc2ccc3c(c2)OCO3)cc1` [paroxetine, reference compound]: in data set [1], the FST climbing attempts entry is reported as “increased” and the “FST time of immobility” value is “significant decreased”.
Regarding `CN1C(=O)CN=C(c2ccccc2)c2cc(Cl)ccc21` [diazepam, reference compound], in data set [2], the “EPM number of entries in open arms” value was “significantly increased” and the “EPM time spent in open arms” value was “significantly increased”.
As a reminder, the EC50 is the concentration needed to bring the measured effect to its halfway point. In the case of NT-3: neurotrophin, in data set [3] (setting [8]), the “agonist behaviour at TrkB” value is listed as “partial agonist” and the ratio signal/background was determined as 1.7. The half-maximal effective concentration (EC50) in data set [3] (neuronal TrkB receptors) amounted to 716 ± 167 pM. Also, in data set [4], the ratio signal/background came out at 3.8 and the EC50 came out at 702 ± 134 pM.
As to `COC(=O)[C@@]1(O)C[C@H]2O[C@]1(C)n1c3ccccc3c3c4c(c5c6ccccc6n2c5c31)C(=O)NC4` [K252a, reference compound], the “reversal of BDNF signal” value in data set [4] (KIRA-ELISA, BDNF 4 nM, TetOn-rhTrkB cells and cortical neurons (Fig. S2)) is reported as “fully reversed”.
As a reminder, the IC50 is the concentration that gives 50% inhibition. In the case of `CSCC[C@@H]1NC(=O)[C@@H]2CCCN2C(=O)[C@H](CC(N)=O)NC(=O)[C@@H](N)CSSC[C@@H](C(=O)O)NC(=O)CNC(=O)[C@H](CCC(=O)O)NC(=O)[C@H](CCCCN)NC(=O)[C@H]([C@@H](C)O)NC(=O)[C@H](Cc2ccc(O)cc2)NC(=O)CNC1=O` [cyclotraxin-B] (H-CNPMGYTKEGC-OH; disulfide 1-11; N-terminus and C-terminus assumed), the IC50 in data set [5] stood at 12.2 ± 8.5 pM; in data set [3] (cortical neurons, with BDNF, read-out: IC50, inhibition of BDNF-induced TrkB activity) it was 67.1 ± 18.9 pM; in data set [3] (neurons, without BDNF, read-out: IC50, BDNF-independent (basal) TrkB activity), 65.7 ± 21.7 pM; in data set [4] (with BDNF, read-out: IC50, inhibition of BDNF-induced TrkB activity), 300 ± 70 pM; in data set [4] (without BDNF, read-out: IC50, BDNF-independent (basal) TrkB activity), 280 ± 80 pM. Besides, in data set [6], the cell death result is recorded as “no cell death”.
With `C[C@@H]1C[C@H]2[C@@H]3CCC4=CC(=O)C=C[C@]4(C)[C@@]3(F)[C@@H](O)C[C@]2(C)[C@@]1(O)C(=O)CO` [dexamethasone, reference compound], the “TrkB phosphorylation (indirect activation)” value in data set [3] (cortical neurons, 1 µM, 2 h) is recorded as “significantly triggered”.
In the case of NGF: neurotrophin, the KIRA-ELISA signal entry in data set [3] (neuronal cells) and in data set [4] (recombinant cells) was “did not produce any signal” throughout.
Consider “YGRKKRRQRRR [tat-empty, reference compound]”, for which the “TrkB inhibition in brain slices” value in data set [7] is “did not produce any effect”.

B1: BDNF: neurotrophin, cognate ligand of TrkB; mature recombinant human BDNF (Peprotech) (protein, UniProt P23560 19-247, looked up)
Neurotrophic factor BDNF …: APMKEANIRGQGGLAYPGVRTHGTLESVNGPKAGSRGLTSLADTFEHVIEELLDEDQKVRPNEENNKDADLYTSRVMLSSQVPLEPPLLFLLEEYKNYLDAANMSMRVRRHSDPARRGELSVCDSISEWVTAADKKTAVDMSGGTVTVLEKVPVSKGQLKQYFYETKCNPMGYTKEGCRGIDKRHWNSQCRTTQSYVRALTMDSKKRIGWRFIRIDTSCVCTLTIKRGR
B1: the EC50 in data set [3] (cortical neurons, agonist alone) was 186 pM and 208 pM; in data set [4] (agonist alone), 672 pM and 614 pM. In addition, in data set [4], the ratio signal/background stood at 3.94.
